This passage reports k, Ymax and inhibition results from US7064122B2, “Pancreatic lipase inhibitor compounds, their synthesis and use” (OSI Pharmaceuticals, Inc., priority 2001, dated 2006).

The experiment has as its target T1, type VI-S porcine pancreatic lipase (Sus scrofa, UniProt P00591).
T1 construct: purchased Sigma type VI-S (catalogue number not given)
T1 sequence (P00591 1-450): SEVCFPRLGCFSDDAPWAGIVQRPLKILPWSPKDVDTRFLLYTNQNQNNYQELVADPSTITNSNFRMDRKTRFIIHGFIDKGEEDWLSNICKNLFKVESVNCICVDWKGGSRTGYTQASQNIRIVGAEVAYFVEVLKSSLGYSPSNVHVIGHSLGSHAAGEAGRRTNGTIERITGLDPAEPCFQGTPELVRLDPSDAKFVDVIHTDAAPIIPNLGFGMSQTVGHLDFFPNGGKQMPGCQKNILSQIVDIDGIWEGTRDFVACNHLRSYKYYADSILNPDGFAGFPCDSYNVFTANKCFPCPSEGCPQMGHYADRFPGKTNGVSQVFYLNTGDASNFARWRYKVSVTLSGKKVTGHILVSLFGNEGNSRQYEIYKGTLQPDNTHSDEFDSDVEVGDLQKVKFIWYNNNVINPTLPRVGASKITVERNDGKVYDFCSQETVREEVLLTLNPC
Nature of the experiment: Pancreatic lipase assay (pH-stat titration, triolein substrate). The class given is biochemical. The arrangement: Ymax: unit not given here. The conditions noted are these: for k / Ymax: 7.0 nM lipase, 700 nM inhibitor, pH 8.0; for k: k fitted for the 12.5 min after inhibitor addition, Y=Ymax*(1-exp(-k*X)); for Ymax: Ymax of the fit Y=Ymax*(1-exp(-k*X)); for inhibition at 0.7 µM: 12.5 min. On the procedure: The use of a pancreatic lipase assay has been described in the literature (Hadvary, P. et al. Biochem. J. (1988) 256: 357-361; Hadvary, P. et al. Biochem. J. (1991) 266:2021-2027). Pancreatic lipase activity was measured using a 718 Stat Titrino (Brinkmann) programmed to maintain a pH of 8.0 using 0.1 N NaOH. The substrate mixture (pH 8) contained 1 mM taurochenodeoxycholate (Sigma), 9 mM taurodeoxycholate (Sigma), 0.1 mM cholesterol (Sigma), 1 mM phosphatidylcholine (Sigma), 1.5% BSA, 2 mM Tris base, 100 mM NaCl, 10 mM CaCl2, and 3% triolein (Sigma). The mixture (5 mL) was emulsified via sonication at room temperature, and added to the titration vessel with rapid stirring. The Stat Titrino was turned on and lipase (7.0 nM type VI-S porcine pancreatic lipase (Sigma) dissolved in PBS) was added to the vessel. After 10 min, inhibitor (700 nM dissolved in 100% DMSO) was added and the reaction continued for an additional 12.5 min. The k values were determined for the 12.5 min after the addition of the inhibitor using a one phase exponential association equation, Y=Ymax*(1−exp(−k*X)), k values for lipase alone were 0.0004±0.0001 sec. The k values for compounds disclosed herein are >0.0004±0.0001 sec.

In the case of “2-Hexadecyloxy-5-methyl-4-oxo-4H-thieno[2,3-d][1,3]oxazine-6-carboxylic acid benzyl ester [Entry 7]”, the k was 0.779 10-3.s-1.

As for `CCCCCCCCOc1nc2scc(C)c2c(=O)o1` [Entry 23, 5-Methyl-2-octyloxy-thieno[2,3-d][1,3]oxazin-4-one], the k was 0.893 10-3.s-1.

A word on the inhibition: it is the drop in the measured response relative to a control, in per cent. `CCCCCCCCOc1nc2sc(CCCCCCC)cc2c(=O)o1` [Entry 68, 6-Heptyl-2-octyloxy-thieno[2,3-d][1,3]oxazin-4-one]: the Ymax is on record as 0.020, the k is 5.825 10-3.s-1 and testing at 0.7 µM gave an inhibition of 78.9%.

For `CCCCCCCCNc1nc2sc(C(=O)NCCCC)c(C)c2c(=O)o1` [Entry 32, 5-Methyl-2-octylamino-4-oxo-4H-thieno[2,3-d][1,3]oxazine-6-carboxylic acid butylamide], the k is 2.447 10-3.s-1.

Take `CCCCCCCCCCNC(=O)c1sc2nc(NCCCCCCCC)oc(=O)c2c1C` [Entry 28, 5-Methyl-2-octylamino-4-oxo-4H-thieno[2,3-d][1,3]oxazine-6-carboxylic acid decylamide]: the k is on record as 0.998 10-3.s-1.

On to `CCCCCCCCNc1nc2sc(C(=O)N(C)Cc3cccc(C)n3)c(C)c2c(=O)o1` [Entry 49, 5-Methyl-2-octylamino-4-oxo-4H-thieno[2,3-d][1,3]oxazine-6-carboxylic acid methyl-(6-methyl-pyridin-2-ylmethyl)-amide], for which the k is reported as 0.022 10-3.s-1.

`CCCCCCCCNc1nc2sc(C(=O)N3CCN(Cc4ccccc4)CC3)c(C)c2c(=O)o1` [Entry 40, 6-(4-Benzyl-piperazine-1-carbonyl)-5-methyl-2-octylamino-thieno[2,3-d][1,3]oxazin-4-one]: the k was 0.110 10-3.s-1.

In the case of `CCCCCCCNc1nc2sc(C(=O)OCc3ccccc3)c(C)c2c(=O)o1` [Entry 17, 2-Heptylamino-5-methyl-4-oxo-4H-thieno[2,3-d][1,3]oxazine-6-carboxylic acid benzyl ester], the k is given as 7.74 10-3.s-1.

For the compound `CCCCCCCCOc1nc2sc(CCCCCC)cc2c(=O)o1` [Entry 84, 6-Hexyl-2-octyloxythieno[2,3-d][1,3]oxazin-4-one], the Ymax was 0.029, the k is on record as 3.033 10-3.s-1 and at 0.7 µM the inhibition was 71.3%.

In the case of `CCCCCCC(C)Nc1nc2sc(C(=O)OCc3ccccc3)c(C)c2c(=O)o1` (centres unmarked) [Entry 71, 5-Methyl-2-(1-methylheptylamino)-4-oxo-4H-thieno[2,3-d][1,3]oxazine-6-carboxylic acid benzyl ester], the Ymax is on record as 14.657 and the k is reported as 0.086 10-3.s-1.

`CCCCCCCCNc1nc2sc(C(=O)N3CCN(CCN4CCCCC4)CC3)c(C)c2c(=O)o1` [Entry 53, 5-Methyl-2-octylamino-6-[4-(2-piperidin-1-yl-ethyl)-piperazine-1-carbonyl]-thieno[2,3-d][1,3]oxazin-4-one]: the k is reported as 0.166 10-3.s-1.

Consider `CCCCCCCCNc1nc2sc(C(=O)NCc3ccco3)c(C)c2c(=O)o1` [Entry 52, 5-Methyl-2-octylamino-4-oxo-4H-thieno[2,3-d][1,3]oxazine-6-carboxylic acid (furan-2-ylmethyl)-amide], for which the k is reported as 1.257 10-3.s-1.

Compound `CCCCCCCc1cc2c(=O)oc(OC(C)CCCCCC)nc2s1` (centres unmarked) [Entry 91, 6-Heptyl-2-(1-methylheptyloxy)thieno[2,3-d][1,3]oxazin-4-one] gave an inhibition at 0.7 µM of 12.4%.

Regarding `CCCCCCCCNc1nc2sc(C(=O)NCc3ccccc3)c(C)c2c(=O)o1` [Entry 21, 5-Methyl-2-octylamino-4-oxo-4H-thieno[2,3-d][1,3]oxazine-6-carboxylic acid benzylamide], the k is given as 1.079 10-3.s-1.

On to `CCCCCCCCNc1nc2sc(C(=O)N(CC)CCc3ccccn3)c(C)c2c(=O)o1` [Entry 51, 5-Methyl-2-octylamino-4-oxo-4H-thieno[2,3-d][1,3]oxazine-6-carboxylic acid ethyl-(2-pyridin-2-yl-ethyl)-amide], for which the k is 0.012 10-3.s-1.

On to `CCCCCCCCNc1nc2sc(C(=O)NCCCN(C)C)c(C)c2c(=O)o1` [Entry 46], for which the k is given as 0.062 10-3.s-1.

As to `CCCCCCCCNc1nc2sc(C(=O)NCCc3cccnc3)c(C)c2c(=O)o1` [Entry 50, 5-Methyl-2-octylamino-4-oxo-4H-thieno[2,3-d][1,3]oxazine-6-carboxylic acid (2-pyridin-3-yl-ethyl)-amide], the k was 0.719 10-3.s-1.

The compound `CCCCCCCCc1cc2c(=O)oc(OCCCCCC)nc2s1` [Entry 94] registered an inhibition at 0.7 µM of 83%.

As for `CCCCCCCCNC(=O)c1sc2nc(OCCCCCCCC)oc(=O)c2c1C` [Entry 15, 5-Methyl-2-octyloxy-4-oxo-4H-thieno[2,3-d][1,3]oxazine-6-carboxylic acid octylamide], the k was 1.548 10-3.s-1.

Regarding `CCCCCCCOC(=O)c1sc2nc(OCCCCCCC)oc(=O)c2c1C` [Entry 10, 5-Methyl-2-heptyloxy-4-oxo-4H-thieno[2,3-][1,3]oxazine-6-carboxylic acid heptyl ester], the k is on record as 1.349 10-3.s-1.

Consider `CCCCCCCCNc1nc2sc(C(=O)NCc3ccccn3)c(C)c2c(=O)o1` [Entry 34, 5-Methyl-2-octylamino-4-oxo-4H-thieno[2,3-d][1,3]oxazine-6-carboxylic acid (pyridin-2-ylmethyl)amide], for which the k is listed as 0.864 10-3.s-1.

As for `CCCCCCCCNc1nc2sc(C(=O)OCc3ccccc3)c(C)c2c(=O)s1` [Entry 56, 5-Methyl-2-octylamino-4-oxo-4H-thieno[2,3-d][1,3]thiazine-6-carboxylic acid benzyl ester], the k is reported as 0.114 10-3.s-1.

Turning to `CCCCCCCCNc1nc2sc(C(=O)NCC(C)C)c(C)c2c(=O)o1` [Entry 54, 5-Methyl-2-octylamino-4-oxo-4H-thieno[2,3-d][1,3]oxazine-6-carboxylic acid isobutyl-amide], the k is reported as 0.702 10-3.s-1.

Turning to `CCCCCCCCOc1nc2sc(C(=O)OCc3ccccc3)c(C)c2c(=O)o1` [Entry 5, 5-Methyl-2-octyloxy-4-oxo-4H-thieno[2,3-d][1,3]oxazine-6-carboxylic acid benzyl ester], the k is listed as 0.649 10-3.s-1.

In the case of `CCCCCCCCNc1nc2sc(C(=O)NC(CCCC)CCCC)c(C)c2c(=O)o1` [Entry 45, 5-Methyl-2-octylamino-4-oxo-4H-thieno[2,3-d][1,3]oxazine-6-carboxylic acid (1-butyl-pentyl)-amide], the k was 0.770 10-3.s-1.

Regarding `CCCCCCCCNc1nc2sc(C(=O)OCCCCCCCC)c(C)c2c(=O)o1` [Entry 20, 5-Methyl-2-octylamino-4-oxo-4H-thieno[2,3-d][1,3]oxazine-6-carboxylic acid octyl ester], the k was 0.922 10-3.s-1.

As to `CCCCCCCCOc1nc2sc(C(C)C)cc2c(=O)o1` [Entry 76, 6-Isopropyl-2-octyloxy-thieno[2,3-d][1,3]oxazin-4-one], the Ymax worked out at 0.161 and the k was 1.288 10-3.s-1.

Take `CCCCCCCCOc1nc2sc(CCCC)cc2c(=O)o1` [Entry 75, 6-Butyl-2-octyloxy-thieno[2,3-d][1,3]oxazin-4-one]: the Ymax turned out to be 0.054 and the k is recorded as 2.219 10-3.s-1.
